Biological target: T1, AcCPR (Aphis citricidus, UniProt A0A346QRP0)
T1 construct: full-length ORF in pFastBac HT A, 6xHis-tagged, Sf9 cell extract (soluble supernatant; called microsomes in results)
T1 sequence (A0A346QRP0 1-681): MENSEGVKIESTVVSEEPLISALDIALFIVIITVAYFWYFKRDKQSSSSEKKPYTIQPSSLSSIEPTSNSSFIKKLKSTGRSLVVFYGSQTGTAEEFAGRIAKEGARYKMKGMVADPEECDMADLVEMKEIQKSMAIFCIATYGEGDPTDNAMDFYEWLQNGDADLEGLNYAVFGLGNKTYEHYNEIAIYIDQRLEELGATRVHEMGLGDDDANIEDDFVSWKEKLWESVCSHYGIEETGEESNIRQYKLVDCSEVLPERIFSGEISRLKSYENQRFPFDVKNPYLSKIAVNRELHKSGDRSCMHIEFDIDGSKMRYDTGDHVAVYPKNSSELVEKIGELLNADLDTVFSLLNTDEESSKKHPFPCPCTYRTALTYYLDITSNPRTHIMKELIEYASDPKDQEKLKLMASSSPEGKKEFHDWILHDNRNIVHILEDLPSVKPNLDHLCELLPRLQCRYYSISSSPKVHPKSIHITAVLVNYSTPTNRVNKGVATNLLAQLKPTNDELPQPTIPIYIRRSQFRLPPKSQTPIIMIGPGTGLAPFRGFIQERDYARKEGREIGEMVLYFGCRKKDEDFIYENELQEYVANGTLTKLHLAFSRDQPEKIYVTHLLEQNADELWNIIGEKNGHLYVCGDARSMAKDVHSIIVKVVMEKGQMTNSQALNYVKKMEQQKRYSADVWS
Experiment: NADPH-cytochrome c reduction, absorbance at […] nm, Sf9 cell extract
Format: biochemical
Details: cytochrome c as electron acceptor, 0.3 M potassium phosphate pH 7.7; NADPH 2 uL of 10 mM stock in 200 uL

## NC(=O)C1=CN([C@@H]2O[C@H](COP(=O)(O)OP(=O)(O)OC[C@H]3O[C@@H](n4cnc5c(N)ncnc54)[C@H](OP(=O)(O)O)[C@@H]3O)[C@@H](O)[C@H]2O)C=CC1 [NADPH]
  NADPH-cytochrome c reduction, absorbance at 550 nm, Sf9 cell extract: Heterologously expressed AcCPR activity was determined by spectrophotometric measurement of the activity of NADPH-cytochrome-c reduction
